Test results: EP0183129A1, “Quinolonecarboxylic acid derivatives” (KYORIN PHARMACEUTICAL CO., LTD., priority 1984, dated 1986)
≈ marks a conversion by molar mass, not a printed value. Structures can show the parent of a compound that is named as a salt. Where two headings read alike, the source gives them in different places.

Legend:
[1] = tested on: Enterobacter cloacae IID 977; assay: In vitro antibacterial activity, MIC (standard strain); format: cell-based; conditions: Enterobacter cloacae, IID977, Enterobacter cloacae IID 977; 10^6 cells/ml; standard strain; read-out: MIC
[2] = tested on: Salmonella entritidis IID 604; assay: as above; format: cell-based; conditions: IID604; Salmonella entritidis IID 604; 10^6 cells/ml; standard strain; read-out: MIC
S. pneumoniae 2054 = assay: In vitro antibacterial activity, MIC (clinical isolates); format: cell-based; conditions: Streptococcus pneumoniae; S. pneumoniae 2054; 10^6 cells/ml; clinical isolate; read-out: MIC
M. pneumoniae Mac. = assay: In vitro antibacterial activity against Mycoplasma, MIC; format: cell-based; conditions: Mycoplasmoides pneumoniae, 120 h; M. pneumoniae Mac.; no visible growth after incubation for 5 days; read-out: MIC
Source text: Experiment-3 In vitro antibacterial activity against Mycoplasma

C. difficile I-E = assay: In vitro antibacterial activity, MIC (standard strain); format: cell-based; conditions: Clostridioides difficile; C. difficile I-E; 10^6 cells/ml; standard strain; read-out: MIC
S. faecalis 401 = assay: In vitro antibacterial activity, MIC (clinical isolates); format: cell-based; conditions: Enterococcus faecalis; S. faecalis 401; 10^6 cells/ml; clinical isolate; read-out: MIC
[3] = tested on: Serratia marcescens IID 618; assay: In vitro antibacterial activity, MIC (standard strain); format: cell-based; conditions: Serratia marcescens, IID618, Serratia marcescens IID 618; 10^6 cells/ml; standard strain; read-out: MIC
E. coli ML4707 = assay: In vivo antibacterial activity against systemic infection in mice; design: species or system mice (ICR-S); conditions: for ED50: Escherichia coli, ML4707, mice (ICR-S), oral, an hour after intraperitoneal infection, challenge dose 2.7 x 10^6 ~ 8.8 x 10^6 cfu/mouse, read-out: ED50 E. coli ML4707; for activity against gram-negative bacterial infections compared with the reference compounds: systemic infection in mice, result in words
Description: Experiment-2 In vivo antibacterial activity against systemic infection in mice (ICR-S)
The infections were produced by intraperitoneal injection of a suspension of the bacterial culture corresponding to the germ studied. The products were administered orally at an hour after the infection.

S. pneumoniae 28 = assay: In vitro antibacterial activity, MIC (clinical isolates); format: cell-based; conditions: Streptococcus pneumoniae, 10^6 cells/ml, clinical isolate
S. pneumoniae 24 = assay: as above; format: cell-based; conditions: Streptococcus pneumoniae; S. pneumoniae 24; 10^6 cells/ml; clinical isolate; read-out: MIC
[4] = tested on: Citrobacter freundii IID 976; assay: In vitro antibacterial activity, MIC (standard strain); format: cell-based; conditions: IID976; Citrobacter freundii IID 976; 10^6 cells/ml; standard strain; read-out: MIC
S. faecalis 214 = assay: In vitro antibacterial activity, MIC (clinical isolates); format: cell-based; conditions: Enterococcus faecalis; S. faecalis 214; 10^6 cells/ml; clinical isolate; read-out: MIC
K. pneumoniae 1-220S = assay: In vitro antibacterial activity, MIC (standard strain); format: cell-based; conditions: Klebsiella pneumoniae, 1220S; K. pneumoniae 1-220S; 10^6 cells/ml; standard strain; read-out: MIC
S. aureus Smith = assay: as above; format: cell-based, Staphylococcus aureus
S. faecalis 49 = assay: In vitro antibacterial activity, MIC (clinical isolates); format: cell-based; conditions: Enterococcus faecalis; S. faecalis 49; 10^6 cells/ml; clinical isolate; read-out: MIC
[5] = tested on: Bacteroides fragilis GM 7000; assay: In vitro antibacterial activity, MIC (standard strain); format: cell-based; conditions: GM7000; Bacteroides fragilis GM 7000; 10^6 cells/ml; standard strain; read-out: MIC
[6] = tested on: Morganella morganii IID 602; assay: as above; format: cell-based; conditions: IID602; Morganella morganii IID 602; 10^6 cells/ml; standard strain; read-out: MIC
S. faecalis IID 682 = assay: as above; format: cell-based; conditions: Enterococcus faecalis, IID682; S. faecalis IID 682; 10^6 cells/ml; standard strain; read-out: MIC
S. pyogenes 3130 = assay: In vitro antibacterial activity, MIC (clinical isolates); format: cell-based; conditions: Streptococcus pyogenes, read-out: MIC
B. fragilis 0558 = assay: In vitro antibacterial activity, MIC (standard strain); format: cell-based, Bacteroides fragilis; conditions: Bacteroides fragilis, 0558, B. fragilis 0558; 10^6 cells/ml; standard strain; read-out: MIC
S. agalactiae 4394 = assay: In vitro antibacterial activity, MIC (clinical isolates); format: cell-based; conditions: Streptococcus agalactiae; S. agalactiae 4394; 10^6 cells/ml; clinical isolate; read-out: MIC
[7] = tested on: Acinetobacter anitratus IID 876; assay: In vitro antibacterial activity, MIC (standard strain); format: cell-based; conditions: Acinetobacter calcoaceticus, IID876, Acinetobacter anitratus IID 876; 10^6 cells/ml; standard strain; read-out: MIC
S. faecalis 402 = assay: In vitro antibacterial activity, MIC (clinical isolates); format: cell-based; conditions: Enterococcus faecalis; S. faecalis 402; 10^6 cells/ml; clinical isolate; read-out: MIC
S. agalactiae 4342 = assay: as above; format: cell-based; conditions: Streptococcus agalactiae; S. agalactiae 4342; 10^6 cells/ml; clinical isolate; read-out: MIC
[8] = tested on: Escherichia coli NIHJ JC-2; assay: In vitro antibacterial activity, MIC (standard strain); format: cell-based; conditions: Escherichia coli, NIHJJC2, Escherichia coli NIHJ JC-2; 10^6 cells/ml; standard strain; read-out: MIC
S. pyogenes 3107 = assay: In vitro antibacterial activity, MIC (clinical isolates); format: cell-based; conditions: Streptococcus pyogenes; S. pyogenes 3107; 10^6 cells/ml; clinical isolate; read-out: MIC
S. pyogenes 4340 = assay: as above; format: cell-based; conditions: Streptococcus pyogenes; S. pyogenes 4340; 10^6 cells/ml; clinical isolate; read-out: MIC
S. agalactiae 4470 = assay: as above; format: cell-based; conditions: Streptococcus agalactiae; S. agalactiae 4470; 10^6 cells/ml; clinical isolate; read-out: MIC
S. pneumoniae 3227 = assay: as above; format: cell-based; conditions: Streptococcus pneumoniae; S. pneumoniae 3227; 10^6 cells/ml; clinical isolate; read-out: MIC
[9] = Staphylococcus aureus, S. aureus Smith, 10^6 cells/ml, standard strain, read-out: MIC

## CNCC1CCN(c2c(F)cc3c(=O)c(C(=O)O)cn(C4CC4)c3c2F)C1 (stereo not drawn) [Example 8, 1-Cyclopropyl-6,8-difluoro-1,4-dihydro-7-(3-methylaminomethyl-l-pyrrolidinyl)-4-oxo-3-quinolinecarboxylic acid hydrochloride]
[1]
  MIC: 0.1 µg/mL
[2]
  MIC: 0.05 µg/mL
S. pneumoniae 2054
  MIC: 0.05 µg/mL
M. pneumoniae Mac.
  MIC: 0.05 µg/mL
C. difficile I-E
  MIC: 1.56 µg/mL
S. faecalis 401
  MIC: 0.1 µg/mL
[3]
  MIC: 0.2 µg/mL
E. coli ML4707
  ED50: 1.9 mg/kg
S. pneumoniae 28
  MIC: 0.05 µg/mL
S. pneumoniae 24
  MIC: 0.05 µg/mL
[4]
  MIC: 0.025 µg/mL
S. faecalis 214
  MIC: 0.05 µg/mL
K. pneumoniae 1-220S
  MIC: 0.1 µg/mL
S. aureus Smith; [9]
  MIC: 0.025 µg/mL
S. faecalis 49
  MIC: 0.1 µg/mL
[5]
  MIC: 0.78 µg/mL
[6]
  MIC: 0.2 µg/mL
S. faecalis IID 682
  MIC: 0.1 µg/mL
S. pyogenes 3130
  MIC: 0.05 µg/mL
B. fragilis 0558
  MIC: 0.39 µg/mL
S. agalactiae 4394
  MIC: 0.1 µg/mL
[7]
  MIC: 0.1 µg/mL
S. faecalis 402
  MIC: 0.2 µg/mL
S. agalactiae 4342
  MIC: 0.2 µg/mL
[8]
  MIC: 0.025 µg/mL
S. pyogenes 3107
  MIC: 0.05 µg/mL
S. pyogenes 4340
  MIC: 0.05 µg/mL

## CCNCC1CCN(c2c(F)cc3c(=O)c(C(=O)O)cn(C4CC4)c3c2Cl)C1 (stereo not drawn) [Example 13, 8-Chloro-l-cyclorpropyl-6-fluoro-1,4-dihydro-7-(3-ethylaminomethyl-l-pyrrolidinyl)-4-oxo-3-quinolinecarboxylic acid]
[1]
  MIC: 0.1 µg/mL (≈ 0.245 µM)
[2]
  MIC: 0.05 µg/mL (≈ 0.123 µM)
S. pneumoniae 2054
  MIC: 0.05 µg/mL (≈ 0.123 µM)
M. pneumoniae Mac.
  MIC: 0.05 µg/mL (≈ 0.123 µM)
S. faecalis 401
  MIC: 0.1 µg/mL (≈ 0.245 µM)
[3]
  MIC: 0.1 µg/mL (≈ 0.245 µM)
E. coli ML4707
  ED50: 0.7 mg/kg
  activity against gram-negative bacterial infections compared with the reference compounds: greater activity against gram-negative bacterial infections than the reference compounds
S. pneumoniae 28
  MIC: 0.05 µg/mL (≈ 0.123 µM)
S. pneumoniae 24
  MIC: 0.05 µg/mL (≈ 0.123 µM)
[4]
  MIC: 0.05 µg/mL (≈ 0.123 µM)
S. faecalis 214
  MIC: 0.1 µg/mL (≈ 0.245 µM)
K. pneumoniae 1-220S
  MIC: 0.1 µg/mL (≈ 0.245 µM)
S. aureus Smith; [9]
  MIC: 0.025 µg/mL (≈ 0.0613 µM)
S. faecalis 49
  MIC: 0.05 µg/mL (≈ 0.123 µM)
[5]
  MIC: 0.1 µg/mL (≈ 0.245 µM)
[6]
  MIC: 0.1 µg/mL (≈ 0.245 µM)
S. faecalis IID 682
  MIC: 0.05 µg/mL (≈ 0.123 µM)
S. agalactiae 4470
  MIC: 0.05 µg/mL (≈ 0.123 µM)
S. pyogenes 3130
  MIC: 0.05 µg/mL (≈ 0.123 µM)
B. fragilis 0558
  MIC: 0.1 µg/mL (≈ 0.245 µM)
S. agalactiae 4394
  MIC: 0.1 µg/mL (≈ 0.245 µM)
[7]
  MIC: 0.05 µg/mL (≈ 0.123 µM)
S. faecalis 402
  MIC: 0.1 µg/mL (≈ 0.245 µM)
S. agalactiae 4342
  MIC: 0.05 µg/mL (≈ 0.123 µM)
[8]
  MIC: 0.0125 µg/mL (≈ 0.0306 µM)
S. pyogenes 3107
  MIC: 0.05 µg/mL (≈ 0.123 µM)
S. pneumoniae 3227
  MIC: 0.05 µg/mL (≈ 0.123 µM)
S. pyogenes 4340
  MIC: 0.05 µg/mL (≈ 0.123 µM)

## CCNCC1CCN(c2c(F)cc3c(=O)c(C(=O)O)cn(C4CC4)c3c2F)C1 (stereo not drawn) [Example 2, l-Cyclopropyl-7-(3-ethylaminomethyl-l-pyrrolidinyl)-6,8-difluoro-l,4-dihydro-4-oxo-3-quinolinecarboxylic acid hydrochloride]
[1]
  MIC: 0.1 µg/mL
[2]
  MIC: 0.05 µg/mL
S. pneumoniae 2054
  MIC: 0.1 µg/mL
M. pneumoniae Mac.
  MIC: 0.05 µg/mL
C. difficile I-E
  MIC: 0.78 µg/mL
S. faecalis 401
  MIC: 0.2 µg/mL
[3]
  MIC: 0.1 µg/mL
E. coli ML4707
  ED50: 0.8 mg/kg
  activity against gram-negative bacterial infections compared with the reference compounds: greater activity against gram-negative bacterial infections than the reference compounds
S. pneumoniae 28
  MIC: 0.05 µg/mL
S. pneumoniae 24
  MIC: 0.05 µg/mL
[4]
  MIC: 0.05 µg/mL
S. faecalis 214
  MIC: 0.2 µg/mL
K. pneumoniae 1-220S
  MIC: 0.1 µg/mL
S. aureus Smith; MIC column of Table 3-1, beside ED50 against S. aureus Smith
  MIC: 0.025 µg/mL
S. aureus Smith; [9]
  MIC: 0.025 µg/mL
S. faecalis 49
  MIC: 0.2 µg/mL
[5]
  MIC: 1.56 µg/mL
[6]
  MIC: 0.1 µg/mL
S. faecalis IID 682
  MIC: 0.2 µg/mL
S. agalactiae 4470
  MIC: 0.1 µg/mL
S. pyogenes 3130
  MIC: 0.05 µg/mL
B. fragilis 0558
  MIC: 0.78 µg/mL
S. agalactiae 4394
  MIC: 0.2 µg/mL
[7]
  MIC: 0.05 µg/mL
S. faecalis 402
  MIC: 0.2 µg/mL
S. agalactiae 4342
  MIC: 0.1 µg/mL
[8]
  MIC: 0.025 µg/mL
S. pyogenes 3107
  MIC: 0.05 µg/mL
S. pneumoniae 3227
  MIC: 0.1 µg/mL
S. pyogenes 4340
  MIC: 0.1 µg/mL
